Results reported in a melting point compilation (Tetko et al.; mined from patent text by program, amines drawn as free bases though some values may be those of a salt).

| melting point | SMILES |
| --- | --- |
| 210 °C | Nc1ccc2ccc(Oc3ccc(F)cc3)nc2n1 |
| 159 to 162 °C | CCCCCCCCC=CCCCCCCCCCCCC(=O)Nc1ccc(Cl)cc1C(=O)O |
| 291 to 292 °C | O=C(O)c1cn(-c2ccc(F)cc2F)c2cc(-c3ccncc3)ccc2c1=O |
| 166 to 167 °C | CC(C)(C)OC(=O)N(Cc1ccc(C2CCCCC2)cc1)c1nc(N2CCOCC2)c2ncn(CC(=O)O)c2n1 |
| 100 to 103 °C | Cn1c(C(F)(F)F)cc(=O)n(-c2cc(OCCCl)c(Cl)cc2F)c1=O |
| 119 to 120 °C | O=C1NC(c2ccccc2)(c2ccccc2)C(=O)N1COP(=O)(OCc1ccccc1)OCc1ccccc1 |
| 148 to 149 °C | CC(c1cc(C#N)ncn1)C(O)(Cn1cncn1)c1ccc(F)cc1F (configuration not stated) |
| 137 to 138 °C | CC(C)n1nc(OCc2ccc3ccccc3n2)cc1CO |
| 86 to 86.5 °C | Cc1cc(C#N)ccc1-c1cccc(C=O)c1 |
| 131 to 133 °C | O=C(O)CCCC(=O)c1ccc2c(c1)CCO2 |
| 166 to 168 °C | O=C1N(Cc2ccc(F)cc2)Cc2cncn2C1(Cc1ccccc1)c1ccc(Br)cc1 (configuration not stated) |
| 108 to 110 °C | C=C(c1cc(F)ccc1OCc1c(Cl)cccc1Cl)n1ccnc1 |
| 200 to 202 °C | CCCCOC(=O)c1cc(OC(=O)OC)c2c(c1)C(=O)c1cccc(OC(=O)OC)c1C2=O |
| 71 to 72 °C | CC(O)CCCCc1ccc(-c2ccccc2)cc1 (configuration not stated) |
| 81.5 to 83 °C | CN(N=C(Cl)c1c(F)cccc1F)S(=O)(=O)c1ccccc1 |
| 277 to 279 °C | CCOc1cc(C(CS(C)(=O)=O)N2C(=O)c3cccc(N(S(C)(=O)=O)S(C)(=O)=O)c3C2=O)ccc1OC (configuration not stated) |
| 183 °C | CCC1C(c2ccc(OC(Cl)C(=O)O)cc2Cl)=CC(=O)CC1C (configuration not stated) |
| 88 °C | CCCN1CCN(C(=O)C(Cl)Cl)CC1 |
| 113 to 114 °C | Cc1c(OCC(F)(F)F)ccnc1CSc1nc2ccccc2n1NCCCO |
| 164 to 166 °C | CCCCOc1nc(N)c2[nH]c(=O)n(CCN(C)Cc3cccc(CC(=O)O)c3)c2n1 |
| 70 to 72 °C | CC(C)=CCC(O)C(C)C1CC=C2C3=C(CCC21C)C1(C)CCC(O)C(C)(C)C1CC3 (configuration not stated) |
| 168 to 170 °C | CNC(=O)[C@@H](O)[C@H](Sc1cc(C)ccc1N)c1ccc(C)cc1 |
| 131 to 134 °C | N#Cc1cc2c(s1)CCCC2NC=O (configuration not stated) |
| 184 to 186 °C | ON=Cc1ccc(OCc2coc(-c3ccccc3)n2)cc1 |

| melting point | SMILES |
| --- | --- |
| 152 to 155 °C | O=C=NC(=O)CS(=O)(=O)c1ccc2ccccc2c1 |
| 206 to 207 °C | C[C@@H]1CN(CC(=O)Nc2nccc3ccccc23)C[C@H](C)N1c1ncnc2sccc12 |
| 145 to 152 °C | O=C(O)Cc1ccc(OCc2ccccc2)cc1[N+](=O)[O-] |
| 98 to 99 °C | C=CCOc1ccc(C(=O)C=Cc2cccc(OC)c2OC)cc1 |
| 69 °C | Cc1cc(N)c(Br)c(C)c1C |
| 130 to 132 °C | CCC1c2cccn2-c2cc(OC)c(F)cc2N1S(=O)(=O)c1ccc(OC)c(C)c1 (configuration not stated) |
| 114 to 118 °C | CCCCCCCCC1CC(c2ccc(-c3ccc(CCCCC)cc3)cc2)OC1=O (configuration not stated) |
| 200 to 201 °C | CN(C)c1cccc2c(S(=O)(=O)NCCCCn3cnc4c(N)nc5ccccc5c43)cccc12 |
| 59 to 61 °C | COC(=O)C(CC(=O)c1ccc(Oc2ccccc2)cc1)SC(C)=O (configuration not stated) |
| 91 to 92 °C | CC(=O)CCc1ccc(C(=O)c2ccc(Cl)cc2)cc1 |
| 186 to 187 °C | CC(=O)OCc1cc2c3ccccc3nc(=O)n2[nH]1 |
| 140 to 148 °C | COC(=O)C1Cc2c([nH]c3ccccc23)C(c2ccc(OC)c(O)c2)N1 (configuration not stated) |
| 138 °C | CN(C(=O)c1ccccc1NC(=O)CN1C(=O)c2ccccc2C1=O)c1ccccc1 |
| 157 to 162 °C | O=C(NC(c1ccc([N+](=O)[O-])cc1)P(=O)(Oc1ccccc1)Oc1ccccc1)N(c1ccccc1)c1ccccc1 (configuration not stated) |
| 235 to 240 °C | CCCCCC(=O)Nc1ccc2c(c1)c(Cc1ccc(C(=O)O)cc1OC)cn2CC(=O)O |
| 142 to 143 °C | CCCS(=O)(=O)c1sc(C(N)=O)c2c1-c1c(cnn1C)CC2 |
| 166 °C | CCOC(=O)c1nc2ccc(OC)cc2n(C)c1=O |
| 125 to 128 °C | O=C1OC(O)c2c(F)ccc(F)c21 (configuration not stated) |
| > 270 °C | CC(=O)Nc1c(-c2ccccc2C)nc2c3ccccc3ccn12 |
| 91 to 93 °C | CC(C)Cc1nn(C)c(=O)c2cn(Cc3ccncc3)cc12 |
| 96 to 99 °C | Cc1ccc(Cn2c(=O)c3c(N4CCN(C)CC4)cc(Cl)cc3n(Cc3ccccc3)c2=O)cc1C |
| 196 to 198 °C | COc1ccc(-c2cc(CO)nn2-c2ccc(S(N)(=O)=O)cc2)cc1I |
| 94 to 96 °C | CCOC(=O)NCCN1c2ccccc2N2CCc3cccc(c32)C1C (configuration not stated) |
| 164 to 165 °C | COc1cccc(-c2ccc3c(c2)C(C)(C)OC(=O)N3)c1 |

| melting point | SMILES |
| --- | --- |
| 256 to 257 °C | c1ccc2c(c1)[nH]c1cnc(-c3nc(C4CC4)no3)cc12 |
| > 400 °C | NS(=O)(=O)c1cc2nc(O)c(O)nc2c2scnc12 |
| 83 to 86 °C | CCCCCCCC(=O)c1ccc(CCC(CCOC(C)=O)(CCOC(C)=O)NC(C)=O)cc1 |
| 158 °C | CCOc1nn(C(=O)NS(=O)(=O)c2c(C)csc2C)c(=O)n1C |
| 268 to 271 °C | C=C1SC(=O)N(c2ccc3cc(-c4ccc(OC)c(C5(C)CCCCC5)c4)ccc3c2)C1=O |
| 109 to 110 °C | CCCCSc1cn(C)cc(-c2cccc(C(F)(F)F)c2)c1=O |
| 243 to 245 °C | Cc1nc(-n2ccc(OCc3ccc(F)cc3)cc2=O)sc1C(=O)NCc1ccccc1 |
| 135 to 136 °C | CCCCn1nc(C(F)(F)CCC)nc1Cc1ccc(-c2ccccc2-c2nnn[nH]2)nc1 |
| 206 to 208 °C | NC(=O)c1ccc(-c2cccc(N)c2)cc1 |
| 38 to 40 °C | CSC1CC(=O)N1CC(=O)OCc1ccccc1 (single isomer, unassigned; (-)) |
| 92 to 94 °C | CCOC(=O)c1nc(-c2cc(Cl)c(OC)c(OC)c2)cs1 |
| 95 to 96 °C | CC(C)[Si](Oc1ccc2c(c1)CN(Nc1ccccn1)C2)(C(C)C)C(C)C |
| 81 to 82 °C | Cc1cc2c(cc1N1CC=CC1)OC(=O)C2C (configuration not stated) |
| 200 to 201 °C | C=C(C)C(=O)NCC(=O)NCC(=O)O |
| 164 to 166 °C | COc1ccc(C=C(Cl)Cl)c(C(=O)O)c1 |
| 120 to 123 °C | CC(c1ccc(-c2ccc(F)cc2)cc1)N1CCN(CCO)CC1 (configuration not stated) |
| 93 to 96 °C | CCCCCCCN(CCCCCSc1nc(-c2ccccc2)c(-c2ccccc2)[nH]1)C(=O)NC |
| 130 to 133 °C | CN(CC(=O)C(CCCCN)NC(=O)c1ccccc1)C(=O)N1CCCC1C(=O)O (configuration not stated) |
| 87 °C | CNc1c(N)c(C)nn1C |
| 205 to 206 °C | COC(=NC#N)NCc1ccc(-c2csc(N=C(N)N)n2)o1 |
| 148 to 149 °C | CCc1[nH]n(C2CCCC2)c2nc(Cc3ccc(OC)c(OC)c3)nc(=O)c1-2 |
| 110 °C | C=CCCn1cnc2c1c(=O)n(C)c(=O)n2C |

| SMILES | melting point |
| --- | --- |
| CN1CCC(c2n[nH]c3cc(Cl)ccc23)CC1 | 211 to 213 °C |
| O=c1[nH]c2ccc(C3CCNCC3)cc2[nH]1 | 214 to 215 °C |
